For data set [1], the system named is N. fowleri European KUL strain. The note with it: amoebicidal effect; cited from earlier work.
Data set [2] deals with N. fowleri European KUL strain. In words: Primary phenotypic organism-based screen at 10 μM (384-well). The class given is cell-based. Particulars: Naegleria fowleri.
Data set [3] has as its system N. fowleri European KUL strain. Description: Naegleria cell-based assay, dose–response (CellTiter-Glo viability, 48 h). (ATP-based viability assays read luminescence as a measure of living cells.)
Procedure: The compounds were screened against N. fowleri European KUL strain axenically cultured in Nelson’s medium supplemented with 10% fetal bovine serum at 37 °C.[59] The screening assay in 96- and 384-well formats (Z’-value of 0.95 ± 0.1) was performed as described elsewhere.[9] All the experiments were performed using trophozoites harvested during the logarithmic phase of growth.[60] The primary screen was performed in duplicate at 10 μM in a 384-well format (2,500 amoebae/well). The dose–response curves were generated in triplicate for the follow up compounds by serial dilution of compounds from 50 to 0.39 μM in a 96-well plate with 10,000 amoebae/well. Assay plates were incubated for 48 h at 37 °C, and cell viability was determined by a CellTiter-Glo Luminescent Cell Viability Assay.[9],[58]
The next data set deals with NfCYP51 (Naegleria fowleri, UniProt A0A2H4A2U9). Description: biochemical. It is filed as binding.
The next data set has as its system Naegleria. The note with it: mouse model of PAM, 20 mg/kg dose; cited from earlier work.
A further data set can be described thus: in vivo. The note with it: female, C57BL/6, mouse, ip, 40 mg/kg. As to the method:
All mice were maintained on a 12 h light/dark cycle in a temperature-controlled environment with access to food and water ad libitum. […] Mice were sacrificed 1 h following the drug administration, and blood and brain samples were collected. Blood (100 μL) was quickly added with 5-fold H2O/CH3CN 8:2, centrifugated to 2500 rpm for 15 min, and plasma was collected. Brain was homogenized in 0.5 mL of distilled water and added with 2 mL of CH3CN. Thus, homogenates were centrifugated to 2500 rpm for 15 min and the supernatants were collected. Plasma and brain supernatants were stored at −20 °C until analysis.
All experiments involving animals were carried out according to Sapienza University’s Ethics Committee, approval code 890/2021-PR, approved on 17 November 2021. Animal care followed the IASP and European Community (EC L358/1, 18/12/86) guidelines on using and protecting animals in experimental research. Eight week-old female C57BL/6 mice were used for the experiments (Charles River, Lecco, Italy).
The targeted analysis was performed by a Waters system composed of a 1525 μ HPLC (Milford, MA, USA), coupled with a Quattro Micro Tandem MS/MS with an ESI source (Micromass, Manchester UK), using a Supelco Ascentis Express C18 (15 cm × 2.1 mm) 2.7 μm analytical column, A (deionized water/formic acid 0.02%) and B (acetonitrile/formic acid 0.02%) as mobile phase, with the following optimized elution binary gradient with linear interpolation: 0–1 min, 30% B; 1–16 min, 45% B; 16–17 min, 45% B; 17–18 min, 30% B; 18–38 min, 30% B to equilibrate the column, flow rate 0.20 mL min^–1. […] Data acquisition, data handling, and instrument control were performed by MassLynx Software 4.1 v (Data Handling System for Windows, Micromass, UK).
Calibration curves were calculated with equal weighted least-squares linear regression analysis of the MRM peak area against the standard nominal concentration. […] The matrix effect (ME) for each compound, in brain (B) and in plasma (P), was evaluated by comparing the matrix-matching calibration curve (2.5, 10, 25, and 50 ng mL^–1) with the corresponding calibration curve.[65]
The biological samples were appropriately diluted with the mobile phase (A:B, 70:30, v:v), filtered at 0.22 μm, and analyzed in triplicate (25 μL injected).

A short description of data set [4]: Single-dose PK experiment of 2a. The note with it: for concentration at 30 min: intraperitoneal, 20 mg/kg.
For data set [5] the following is noted: cited from earlier work.
[6] abbreviates: 10 µM, supplement CSV, read-out: % Inhibition at 10 µM against N. fowleri KUL strain.
The mark [7] stands for this setting: Table S1, mean of two biological duplicates, read-out: % Inhibition at 10 µM.
Where [8] appears, read: concentration for 50% growth inhibition from dose–response curves, triplicate, axenically cultured N. fowleri trophozoites.
The mark [9] stands for this setting: 0.5 μM NfCYP51, inhibitor 0.025–0.5 μM, ≤ values estimated from linear dependence of binding, read-out: KD.
Setting [10] is: average brain distribution coefficient (brain/plasma ratio).

Molecules are shown by their SMILES. Like-named read-outs stand apart in the source and are kept apart here.

Sequence of NfCYP51 (A0A2H4A2U9 entry or part of it): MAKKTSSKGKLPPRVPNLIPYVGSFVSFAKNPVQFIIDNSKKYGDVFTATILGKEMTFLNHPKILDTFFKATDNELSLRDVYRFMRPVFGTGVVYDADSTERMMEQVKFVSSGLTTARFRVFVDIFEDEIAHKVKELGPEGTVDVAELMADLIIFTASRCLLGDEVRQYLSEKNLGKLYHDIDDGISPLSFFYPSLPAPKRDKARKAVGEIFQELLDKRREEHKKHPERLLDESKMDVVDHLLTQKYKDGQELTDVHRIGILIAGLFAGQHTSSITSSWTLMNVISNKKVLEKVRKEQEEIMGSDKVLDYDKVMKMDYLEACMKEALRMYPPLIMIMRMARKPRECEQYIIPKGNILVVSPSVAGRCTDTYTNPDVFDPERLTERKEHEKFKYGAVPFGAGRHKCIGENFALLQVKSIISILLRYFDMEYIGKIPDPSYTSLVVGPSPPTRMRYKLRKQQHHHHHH

As for `CCC(C)n1ncn(-c2ccc(N3CCN(c4ccc(OCC5COC(Cn6cncn6)(c6ccc(Cl)cc6Cl)O5)cc4)CC3)cc2)c1=O` (centres unmarked) [itraconazole], the EC50 in data set [1] is not above 10 nM.

Turning to `O=C(OC(Cn1ccnc1)c1ccccc1)c1cccc(C(F)(F)F)c1` (centres unmarked) [Compound 2c], the inhibition at 10 µM in data set [2] (setting [6]) and in data set [2] (setting [7]) was 53.5 ± 6.4% in each case.

`O=C(O[C@H](Cn1cncn1)c1ccc(F)cc1)c1cccc(C(F)(F)F)c1` [Compound 7, (S)-1-(4-Fluorophenyl)-2-(1H-1,2,4-triazol-1-yl)ethyl 3-(Trifluoromethyl)benzoate] came in with an EC50 in data set [3] (setting [8]) of 20.6 ± 0.04 µM. The Kd on NfCYP51 (setting [9]) was 87 ± 10 nM.

`Clc1cc(Cl)cc(CO[C@H](Cn2ccnc2)c2ccc(Cl)cc2Cl)c1` [Compound 10b, (S)-1-(2-((3,5-Dichlorobenzyl)oxy)-2-(2,4-dichlorophenyl)ethyl)-1H-imidazole]: it took 3.5 ± 0.01 µM to reach a half-maximal effect in data set [3] (setting [8]) (EC50). Further, the Kd on NfCYP51 (setting [9]) was not above 5 nM.

On to `COc1ccc(CC(c2ccc(OC)cc2)n2ccnc2)cc1` (centres unmarked) [Compound 2e], for which the inhibition at 10 µM in data set [2] (setting [6]) and in data set [2] (setting [7]) was 49.5 ± 6.4% each time.

With `CC[C@@H]([C@H](C)O)n1ncn(-c2ccc(N3CCN(c4ccc(OC[C@@H]5CO[C@@](Cn6cncn6)(c6ccc(F)cc6F)C5)cc4)CC3)cc2)c1=O` [Posaconazole], the mice cured result with Naegleria is listed as “two of six mice cured”. The EC50 in data set [1] is not above 10 nM.

In data set [3] (setting [8]), `Fc1ccc([C@@H](Cn2ccnc2)OCc2cc(Cl)cc(Cl)c2)cc1` [Compound 8b, (S)-1-(2-((3,5-Dichlorobenzyl)oxy)-2-(4-fluorophenyl)ethyl)-1H-imidazole] yielded an EC50 of 2.4 ± 0.04 µM. At NfCYP51 (setting [9]), the Kd is 7 ± 2 nM. In the data set “in vivo” (1 h), the “brain/plasma (B/P)” value came out at 0.35. Also, the Kp at 1 h amounted to 0.43 ± 0.08 in the data set “in vivo” (setting [10]) and 0.51 in “in vivo” (brain/plasma (B/P)).

Consider `OC(Cn1cncn1)(Cn1cncn1)c1ccc(F)cc1F` [Fluconazole, fluconazole, reference compound], for which the dissociation constant Kd at NfCYP51 (setting [9]) was 141 ± 21 nM.

In the case of `Clc1ccc(-n2ccc(C(c3ccccc3)n3ccnc3)c2)cc1` (centres unmarked) [Compound 2h], the inhibition at 10 µM in data set [2] (setting [6]) and in data set [2] (setting [7]) was 49 ± 9.9% each time.

As to `COc1ccc([C@@H](Cn2ccnc2)OC(=O)c2cccc(C(F)(F)F)c2)cc1` [Compound 3b, (S)-2-(1H-Imidazol-1-yl)-1-(4-methoxyphenyl)ethyl 3-(Trifluoromethyl)benzoate], the EC50 in data set [3] (setting [8]) was 24 ± 0.9 µM; in data set [3] (supplement CSV), 24.8 ± 0.9 µM.

As for `O=C(Nc1ccc(N2CCN(c3ccc(Cl)cc3)CC2)cc1)OC(Cn1ccnc1)c1ccc(F)cc1` (centres unmarked) [Compound 2d], the inhibition at 10 µM in data set [2] (setting [6]) and in data set [2] (setting [7]) was 66.5 ± 3.5% throughout.

`O=C(O[C@H](Cn1ccnc1)c1ccc(Cl)cc1Cl)c1cccc(C(F)(F)F)c1` [Compound 5b, (S)-1-(2,4-Dichlorophenyl)-2-(1H-imidazol-1-yl)ethyl 3-(Trifluoromethyl)benzoate] had an EC50 in data set [3] (setting [8]) of 4.3 ± 0.05 µM. At NfCYP51 (setting [9]), the Kd is 70 ± 2 nM.

On to `FC(F)(F)c1cccc(CO[C@H](Cn2ccnc2)c2ccc(Cl)cc2Cl)c1` [Compound 9b, (S)-1-(2-(2,4-Dichlorophenyl)-2-((3-(trifluoromethyl)benzyl)oxy)ethyl)-1H-imidazole], for which the response in data set [3] (setting [8]) was half-maximal at 1.5 ± 0.02 µM (EC50). Further, the Kd at NfCYP51 (setting [9]) was not above 5 nM. Moreover, the “average brain distribution coefficient (brain/plasma ratio)” value in the data set “in vivo” (1 h) is approximately 1. In addition, in the data set “in vivo” (1 h), the “brain/plasma (B/P)” value is reported as 1.14. Besides, the Kp at 1 h in “in vivo” (setting [10]) was 1.02 ± 0.12; in “in vivo” (brain/plasma (B/P)), 0.89.

For the molecule `O=C(OC(Cn1ccnc1)c1ccc(F)cc1)c1cccc(C(F)(F)F)c1` (centres unmarked) [Compound 2a], the Kd on NfCYP51 (setting [9]) was 88 ± 4 nM. Besides, the inhibition at 10 µM was approximately 50% in data set [2] (read-out: % inhibition at 10 μM, 10 μM, N. fowleri KUL strain); 51.5 ± 13.4% in data set [2] (setting [6]); 51.5 ± 13.4% in data set [2] (setting [7]). For the same molecule, the concentration at 30 min turned out to be 100 ng/g in data set [4] (brain) and 4 ng/mL in data set [4] (plasma).

`COc1ccc(C(Cc2ccc(Cl)cc2)n2ccnc2)cc1` (centres unmarked) [Compound 2f]: the inhibition at 10 µM in data set [2] (setting [6]) and in data set [2] (setting [7]) was 54.5 ± 0.7% in each case.

The molecule `O=C(O[C@@H](Cn1ccnc1)c1ccc(F)cc1)c1cc(Cl)cc(Cl)c1` [Compound 4a, (R)-1-(4-Fluorophenyl)-2-(1H-imidazol-1-yl)ethyl 3,5-Dichlorobenzoate] showed an EC50 in data set [3] (setting [8]) of 21.5 ± 0.04 µM.

Regarding `Clc1ccc(COC(Cn2ccnc2)c2ccc(Cl)cc2Cl)c(Cl)c1` (centres unmarked) [Compound 1, miconazole], the elimination half-life in data set [5] was 24 h. For the same molecule, the Kd at NfCYP51 was not above 5 nM.

Regarding `COc1ccc(C(Cc2ccc(-n3cccc3)cc2)n2ccnc2)cc1` (centres unmarked) [Compound 2i], the inhibition at 10 µM in data set [2] (setting [6]) and in data set [2] (setting [7]) was 37.5 ± 30.4% each time.

As to `Clc1ccc(C(c2ccn(-c3ccc(Cl)cc3)c2)n2ccnc2)cc1` (centres unmarked) [Compound 2g], the inhibition at 10 µM in data set [2] (setting [6]) and in data set [2] (setting [7]) was 47 ± 7.1% throughout.

As to `O=C(O[C@H](Cn1ccnc1)c1ccc(Cl)cc1Cl)c1ccc(Cl)cc1Cl` [Compound 6b, (S)-1-(2,4-Dichlorophenyl)-2-(1H-imidazol-1-yl)ethyl 2,4-Dichlorobenzoate], a half-maximal effect in data set [3] (setting [8]) (EC50) was put at 2.6 ± 0.03 µM. Moreover, the Kd at NfCYP51 (setting [9]) was not above 5 nM.

`O=C(O[C@H](Cn1ccnc1)c1ccc(F)cc1)c1cc(Cl)cc(Cl)c1` [Compound 4b, (S)-1-(4-Fluorophenyl)-2-(1H-imidazol-1-yl)ethyl 3,5-Dichlorobenzoate] registered an EC50 in data set [3] (setting [8]) of 4.8 ± 0.05 µM.

In data set [3] (setting [8]), `O=C(O[C@@H](Cn1ccnc1)c1ccc(Cl)cc1Cl)c1cccc(C(F)(F)F)c1` [Compound 5a, (R)-1-(2,4-Dichlorophenyl)-2-(1H-imidazol-1-yl)ethyl 3-(Trifluoromethyl)benzoate] registered an EC50 of 10.2 ± 0.03 µM. At NfCYP51 (setting [9]), the Kd was 161 ± 8 nM.

Regarding `COc1ccc([C@H](Cn2ccnc2)OC(=O)c2cccc(C(F)(F)F)c2)cc1` [Compound 3a, (R)-2-(1H-Imidazol-1-yl)-1-(4-methoxyphenyl)ethyl 3-(Trifluoromethyl)benzoate], in data set [3] (read-out: % inhibition at 50 μM), the inhibition at 50 µM is 69%.

In the case of `O=C(O)c1cccc(C(F)(F)F)c1` [3-trifluoro benzoic acid], the “circulating metabolite of 2a” value in data set [4] (after 2a 20 mg/kg intraperitoneally) is given as “one of the main circulating metabolites for up to 24 h”.

As a reminder, the EC50 is the concentration needed to bring the measured effect to its halfway point. In general, inhibition refers to the drop in the measured response relative to a control, in per cent. In general, Kd refers to the free concentration of one partner at which half of the binding sites on the other are occupied at equilibrium, for simple one-to-one binding. A word on the Kp: it is tissue or fluid exposure divided by exposure in the circulation.

These data come from PMC10758121, “Miconazole-like Scaffold is a Promising Lead for Naegleria fowleri-Specific CYP51 Inhibitors” (Journal of Medicinal Chemistry, 2023).
